Results reported in ChEMBL document CHEMBL1201862, “PubChem BioAssay data set” (2004).
Active and inactive are the calls of the source.

Tests used:
[1] = viability loss in Vero cells – cytotoxicity control for Vif-APOBEC3G degradation inhibitor project, dose response (AID 1117358); assay type: functional; settings: Vero
[2] = target: T1, Calpain-2 catalytic subunit (Sus scrofa, UniProt P43367); experiment: m-calpain protease blockers, concentration series – biochemical, fluorogenic peptide substrate, dose response (AID 1420); assay type: functional
T1 sequence (P43367 whole entry): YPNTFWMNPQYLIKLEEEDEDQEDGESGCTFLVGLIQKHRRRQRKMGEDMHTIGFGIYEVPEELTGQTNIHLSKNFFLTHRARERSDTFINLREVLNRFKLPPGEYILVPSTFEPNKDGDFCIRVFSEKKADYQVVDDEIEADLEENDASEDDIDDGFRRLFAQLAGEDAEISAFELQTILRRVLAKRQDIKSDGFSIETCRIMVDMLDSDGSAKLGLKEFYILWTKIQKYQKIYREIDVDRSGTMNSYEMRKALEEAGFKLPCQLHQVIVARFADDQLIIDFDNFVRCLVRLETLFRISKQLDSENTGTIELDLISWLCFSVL

[3] = target: T2, Histone-lysine N-methyltransferase NSD2 (Homo sapiens, UniProt O96028); assay type: biochemical
T2 sequence (O96028 whole entry): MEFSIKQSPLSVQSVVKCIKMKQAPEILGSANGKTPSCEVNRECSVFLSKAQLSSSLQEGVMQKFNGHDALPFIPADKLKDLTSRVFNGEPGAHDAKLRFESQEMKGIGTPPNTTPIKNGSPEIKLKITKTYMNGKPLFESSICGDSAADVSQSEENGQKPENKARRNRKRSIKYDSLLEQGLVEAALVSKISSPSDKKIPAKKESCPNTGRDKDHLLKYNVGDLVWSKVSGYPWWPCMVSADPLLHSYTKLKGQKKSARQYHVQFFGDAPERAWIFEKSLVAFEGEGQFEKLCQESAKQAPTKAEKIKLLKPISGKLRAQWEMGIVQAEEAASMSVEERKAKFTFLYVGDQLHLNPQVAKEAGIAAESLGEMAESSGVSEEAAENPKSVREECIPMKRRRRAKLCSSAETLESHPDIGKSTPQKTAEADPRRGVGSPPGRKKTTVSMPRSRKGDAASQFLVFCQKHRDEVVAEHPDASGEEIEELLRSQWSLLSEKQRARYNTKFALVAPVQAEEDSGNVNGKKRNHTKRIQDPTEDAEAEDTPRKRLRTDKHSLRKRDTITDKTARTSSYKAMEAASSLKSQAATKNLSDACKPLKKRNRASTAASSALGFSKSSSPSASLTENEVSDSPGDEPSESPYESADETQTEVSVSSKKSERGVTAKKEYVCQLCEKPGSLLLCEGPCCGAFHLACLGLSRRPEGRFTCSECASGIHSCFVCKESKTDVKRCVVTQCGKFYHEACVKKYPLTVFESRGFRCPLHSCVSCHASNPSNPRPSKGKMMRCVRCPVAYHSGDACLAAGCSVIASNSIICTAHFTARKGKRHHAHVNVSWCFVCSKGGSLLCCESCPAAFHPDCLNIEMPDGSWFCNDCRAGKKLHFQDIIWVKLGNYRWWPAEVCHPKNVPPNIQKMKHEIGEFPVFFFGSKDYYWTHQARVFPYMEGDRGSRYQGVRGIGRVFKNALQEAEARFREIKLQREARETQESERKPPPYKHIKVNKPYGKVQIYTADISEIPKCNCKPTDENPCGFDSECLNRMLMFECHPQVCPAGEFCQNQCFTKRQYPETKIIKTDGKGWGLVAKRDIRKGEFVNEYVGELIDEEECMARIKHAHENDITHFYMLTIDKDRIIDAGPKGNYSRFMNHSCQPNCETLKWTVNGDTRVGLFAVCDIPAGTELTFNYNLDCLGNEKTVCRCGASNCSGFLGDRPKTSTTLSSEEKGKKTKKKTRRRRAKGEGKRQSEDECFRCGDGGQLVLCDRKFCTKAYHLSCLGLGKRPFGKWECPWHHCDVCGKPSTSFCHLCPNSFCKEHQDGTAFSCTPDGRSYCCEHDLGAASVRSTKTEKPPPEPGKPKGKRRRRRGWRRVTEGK

Caspase-6 = target: T3, Caspase-6 (Homo sapiens, UniProt P55212); experiment: inhibition of CASP6 peptide cleavage – biochemical, VEID-R110 fluorescence, cherry-pick, dose response (AID 720632)
T3 sequence (P55212 whole entry): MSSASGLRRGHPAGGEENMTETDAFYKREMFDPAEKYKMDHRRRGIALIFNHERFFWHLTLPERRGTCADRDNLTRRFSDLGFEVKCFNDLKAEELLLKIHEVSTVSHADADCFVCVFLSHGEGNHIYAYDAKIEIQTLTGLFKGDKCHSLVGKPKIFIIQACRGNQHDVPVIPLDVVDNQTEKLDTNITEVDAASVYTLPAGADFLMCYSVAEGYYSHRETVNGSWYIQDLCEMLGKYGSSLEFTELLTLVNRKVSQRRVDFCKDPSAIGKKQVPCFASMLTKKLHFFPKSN

Albumin = Albumin (Bos taurus, UniProt P02769); experiment: Counterscreen for inhibitors of T-cell receptor (TCR)-CD3 interaction: Fluorescence-based biochemical high throughput dose response assay to identify inhibitors of T-cell receptor (TCR)-CD3 interaction using a TAMRA-labeled BSA probe.; assay type: functional
Albumin, sequence (P02769 whole entry): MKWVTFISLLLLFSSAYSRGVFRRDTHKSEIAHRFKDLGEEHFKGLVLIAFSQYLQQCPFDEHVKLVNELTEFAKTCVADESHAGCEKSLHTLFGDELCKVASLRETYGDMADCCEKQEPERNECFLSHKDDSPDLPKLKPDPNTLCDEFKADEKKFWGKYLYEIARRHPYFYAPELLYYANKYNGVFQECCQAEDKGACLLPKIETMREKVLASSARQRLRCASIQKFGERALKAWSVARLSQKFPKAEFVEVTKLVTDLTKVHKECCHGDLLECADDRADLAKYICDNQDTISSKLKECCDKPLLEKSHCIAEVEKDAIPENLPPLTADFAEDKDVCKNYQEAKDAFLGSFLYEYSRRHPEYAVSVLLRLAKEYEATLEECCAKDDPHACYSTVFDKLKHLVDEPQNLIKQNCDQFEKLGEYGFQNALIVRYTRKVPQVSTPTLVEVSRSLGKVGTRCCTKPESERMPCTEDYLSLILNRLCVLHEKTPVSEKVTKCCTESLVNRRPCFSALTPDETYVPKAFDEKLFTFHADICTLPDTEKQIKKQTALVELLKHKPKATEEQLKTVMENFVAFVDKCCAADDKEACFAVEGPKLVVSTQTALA

Large T antigen = Large T antigen (Simian virus 40, UniProt P03070); assay type: functional, Betapolyomavirus macacae;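 also: Confirmatory-stage PubChem screen for compounds that inhibit SV40 T antigen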
Large T antigen, sequence (P03070 whole entry, the tested form may be a part): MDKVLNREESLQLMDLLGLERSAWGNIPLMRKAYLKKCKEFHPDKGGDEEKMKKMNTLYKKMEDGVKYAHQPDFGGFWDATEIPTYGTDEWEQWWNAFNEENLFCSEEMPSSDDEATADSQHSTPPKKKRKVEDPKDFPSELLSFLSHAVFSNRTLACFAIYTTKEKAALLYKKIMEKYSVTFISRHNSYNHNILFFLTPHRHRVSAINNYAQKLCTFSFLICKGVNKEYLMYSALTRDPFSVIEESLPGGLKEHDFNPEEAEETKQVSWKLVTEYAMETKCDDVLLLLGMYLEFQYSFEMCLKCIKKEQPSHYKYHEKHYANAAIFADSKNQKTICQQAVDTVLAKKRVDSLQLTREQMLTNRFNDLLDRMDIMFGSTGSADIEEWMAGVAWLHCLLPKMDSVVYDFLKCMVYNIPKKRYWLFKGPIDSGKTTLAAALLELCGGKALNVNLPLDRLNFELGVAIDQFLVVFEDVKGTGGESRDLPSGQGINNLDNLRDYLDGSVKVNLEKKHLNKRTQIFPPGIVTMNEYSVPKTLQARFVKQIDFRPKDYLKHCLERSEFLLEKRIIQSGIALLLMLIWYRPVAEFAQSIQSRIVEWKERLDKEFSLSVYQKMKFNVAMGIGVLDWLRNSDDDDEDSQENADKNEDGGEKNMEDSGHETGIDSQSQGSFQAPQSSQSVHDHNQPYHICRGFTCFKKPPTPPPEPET

[4] = target: E3 ubiquitin-protein ligase UHRF1 (Homo sapiens, UniProt Q96T88); experiment: Counterscreen for inhibitors of 5-meCpG-binding domain protein 2 (MBD2): TRFRET-based biochemical high throughput dose response assay to identify inhibitors of binding of ubiquitin-like with PHD and ring finger domains 1 (UHRF1) to methylated oligonucleotide.
E3 ubiquitin-protein ligase UHRF1, sequence (Q96T88 whole entry, the tested form may be a part): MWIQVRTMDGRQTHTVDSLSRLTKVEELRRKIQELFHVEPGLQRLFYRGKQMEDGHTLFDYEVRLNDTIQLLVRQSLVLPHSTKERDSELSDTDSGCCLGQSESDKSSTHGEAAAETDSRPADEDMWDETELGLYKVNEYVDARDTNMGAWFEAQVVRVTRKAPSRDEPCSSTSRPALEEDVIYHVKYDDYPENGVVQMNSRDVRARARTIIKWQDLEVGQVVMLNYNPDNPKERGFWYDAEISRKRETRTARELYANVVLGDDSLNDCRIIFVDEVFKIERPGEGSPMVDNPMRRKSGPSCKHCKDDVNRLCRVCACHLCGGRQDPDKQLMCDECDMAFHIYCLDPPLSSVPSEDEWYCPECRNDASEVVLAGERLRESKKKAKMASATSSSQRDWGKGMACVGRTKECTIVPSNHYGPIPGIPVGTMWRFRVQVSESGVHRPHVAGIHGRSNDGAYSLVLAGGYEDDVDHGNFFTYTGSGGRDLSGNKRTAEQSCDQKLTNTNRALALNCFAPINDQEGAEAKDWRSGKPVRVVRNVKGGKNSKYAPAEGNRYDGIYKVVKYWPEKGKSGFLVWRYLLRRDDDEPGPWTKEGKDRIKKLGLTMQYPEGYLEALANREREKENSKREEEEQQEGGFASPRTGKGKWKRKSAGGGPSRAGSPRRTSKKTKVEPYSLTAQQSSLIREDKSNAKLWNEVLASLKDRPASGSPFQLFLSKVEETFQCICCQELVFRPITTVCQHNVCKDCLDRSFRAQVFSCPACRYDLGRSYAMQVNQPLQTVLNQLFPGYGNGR

[5] = NIH-3T3 fibroblast cytotoxicity, dose response, cytotoxicity control, cell-based, fluorescence, Alamar Blue, secondary assay (AID 2327); assay type: functional;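 also: NIH-3T3 mouse fibroblasts cultured with fluconazole at 8 µg/mL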
[6] = target: Induced myeloid leukemia cell differentiation protein Mcl-1 (Homo sapiens, UniProt Q07820); assay type: functional
Induced myeloid leukemia cell differentiation protein Mcl-1, sequence (Q07820 whole entry): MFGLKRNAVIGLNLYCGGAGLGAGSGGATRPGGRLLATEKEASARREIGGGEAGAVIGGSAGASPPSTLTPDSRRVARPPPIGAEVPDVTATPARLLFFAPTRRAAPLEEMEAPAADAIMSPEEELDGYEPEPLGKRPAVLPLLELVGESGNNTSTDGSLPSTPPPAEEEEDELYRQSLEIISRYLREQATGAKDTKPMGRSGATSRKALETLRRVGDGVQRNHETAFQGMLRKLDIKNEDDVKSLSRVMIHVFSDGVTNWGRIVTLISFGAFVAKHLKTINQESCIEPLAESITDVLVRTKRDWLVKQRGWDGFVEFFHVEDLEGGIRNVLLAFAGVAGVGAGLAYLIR

Aminopeptidase N = target: T4, Aminopeptidase N (Plasmodium falciparum FcB1/Columbia, UniProt O96935); experiment: malaria alanyl aminopeptidase activity blockers – biochemical, fluorogenic H-Leu-NHMec substrate, 1536-well (AID 1445); design: species or system Plasmodium falciparum 3D7, 3D7
T4 sequence (O96935 whole entry): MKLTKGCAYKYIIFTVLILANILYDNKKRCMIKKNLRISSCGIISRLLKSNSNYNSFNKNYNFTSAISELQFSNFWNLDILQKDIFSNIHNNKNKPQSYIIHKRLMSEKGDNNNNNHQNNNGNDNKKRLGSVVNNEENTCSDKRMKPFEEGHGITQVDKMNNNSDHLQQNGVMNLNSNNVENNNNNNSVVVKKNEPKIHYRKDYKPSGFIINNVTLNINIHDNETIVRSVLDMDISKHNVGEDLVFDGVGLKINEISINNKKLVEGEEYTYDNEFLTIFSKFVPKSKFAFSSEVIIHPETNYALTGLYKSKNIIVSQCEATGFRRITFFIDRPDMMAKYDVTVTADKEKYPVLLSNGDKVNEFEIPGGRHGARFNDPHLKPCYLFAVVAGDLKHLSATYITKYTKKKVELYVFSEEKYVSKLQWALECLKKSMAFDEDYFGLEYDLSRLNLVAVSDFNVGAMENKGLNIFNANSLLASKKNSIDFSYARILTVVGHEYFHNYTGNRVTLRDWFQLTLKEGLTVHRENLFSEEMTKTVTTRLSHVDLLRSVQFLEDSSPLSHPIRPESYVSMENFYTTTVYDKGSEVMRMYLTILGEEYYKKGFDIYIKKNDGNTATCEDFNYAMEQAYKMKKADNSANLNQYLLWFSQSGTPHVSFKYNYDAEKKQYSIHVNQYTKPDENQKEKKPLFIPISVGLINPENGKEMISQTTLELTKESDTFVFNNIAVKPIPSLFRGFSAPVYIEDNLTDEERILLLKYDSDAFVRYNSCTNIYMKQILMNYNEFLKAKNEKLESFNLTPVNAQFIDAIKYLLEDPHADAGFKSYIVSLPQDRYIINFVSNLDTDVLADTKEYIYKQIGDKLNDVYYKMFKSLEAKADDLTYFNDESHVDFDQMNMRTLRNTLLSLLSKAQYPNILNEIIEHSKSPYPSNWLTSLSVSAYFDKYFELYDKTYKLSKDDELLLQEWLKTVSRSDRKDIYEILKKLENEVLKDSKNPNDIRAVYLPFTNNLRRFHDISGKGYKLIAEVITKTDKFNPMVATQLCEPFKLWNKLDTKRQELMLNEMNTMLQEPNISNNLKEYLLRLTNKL

[7] = target: T5, Mannose-6-phosphate isomerase (Homo sapiens, UniProt P34949); experiment: MPI enzyme activity inhibition – biochemical, fluorescence intensity, coupled assay, primary screen (AID 1209)
T5 sequence (P34949 whole entry): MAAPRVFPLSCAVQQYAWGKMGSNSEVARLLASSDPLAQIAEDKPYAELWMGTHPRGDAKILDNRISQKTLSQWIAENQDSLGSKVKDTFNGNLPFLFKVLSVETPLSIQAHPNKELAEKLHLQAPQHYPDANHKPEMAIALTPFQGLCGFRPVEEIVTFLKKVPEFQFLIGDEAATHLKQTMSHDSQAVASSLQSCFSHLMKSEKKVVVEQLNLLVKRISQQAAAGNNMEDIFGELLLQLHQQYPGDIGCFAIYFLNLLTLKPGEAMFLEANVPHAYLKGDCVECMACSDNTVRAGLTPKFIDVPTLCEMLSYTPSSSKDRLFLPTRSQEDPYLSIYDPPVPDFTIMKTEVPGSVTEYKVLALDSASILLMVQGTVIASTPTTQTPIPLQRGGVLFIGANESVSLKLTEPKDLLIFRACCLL

[8] = fluconazole-exposed Candida albicans growth modulators – fluorescence, retest, confirmation (AID 2467); assay type: functional, cell-based
[9] = lung carcinoma cell viability loss – CellTiter-Glo luminescence, dry powder, set 17, dose response (AID 1117284); assay type: functional, cell-based; settings: A549
[10] = general mammalian cell viability loss – activator set, cherry-pick, cytotoxicity control for miR-122 modulator project, dose response (AID 720690); assay type: functional, cell-based;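 also: HEK293T human cells scored for general mammalian cytotoxicity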
Paired box protein Pax-8 = Paired box protein Pax-8 (Homo sapiens, UniProt Q06710); experiment: PAX8 transcriptional activity inhibition in RMG-I – RMG-I cells, luciferase, cherry-pick, dose response (AID 687027); assay type: functional, cell-based;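 also: luciferase reporter driven by Pax8 target thyroperoxidase promoter measured by SteadyGlo luminescence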
Paired box protein Pax-8, sequence (Q06710 whole entry): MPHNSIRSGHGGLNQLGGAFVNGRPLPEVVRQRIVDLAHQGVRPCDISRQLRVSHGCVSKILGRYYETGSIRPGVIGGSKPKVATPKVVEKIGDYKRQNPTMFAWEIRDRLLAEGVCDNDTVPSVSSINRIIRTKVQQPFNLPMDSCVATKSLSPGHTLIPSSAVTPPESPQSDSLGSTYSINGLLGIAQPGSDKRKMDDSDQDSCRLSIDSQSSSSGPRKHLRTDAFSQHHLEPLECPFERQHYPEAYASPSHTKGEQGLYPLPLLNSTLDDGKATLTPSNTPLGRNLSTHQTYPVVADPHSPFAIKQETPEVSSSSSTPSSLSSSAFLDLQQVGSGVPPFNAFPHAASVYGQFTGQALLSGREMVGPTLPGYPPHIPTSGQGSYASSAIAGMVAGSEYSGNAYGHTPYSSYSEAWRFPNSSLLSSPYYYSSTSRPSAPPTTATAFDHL

[11] = viability loss in A549 lung cells – cell-based, 24 h, CellTiter-Glo luminescence, cherry-picks, cytotoxicity control, dose response (AID 1053115); assay type: functional; settings: A549, 24 h
[12] = OVCAR-3 cell viability loss – plate reader, dry powder samples, PAX8 inhibitor project, dose response (AID 743044); assay type: functional, cell-based
[13] = OVCAR8 cell viability loss – plate reader, dry powder samples, PAX8 project, dose response (AID 743197); assay type: functional, cell-based; settings: OVCAR-8

Cc1ccc(Cl)cc1N1CCN(C(=O)Cc2cn(C)c3ccccc23)CC1
6.39 µM (not active): IC50 [2]
active: CC50 [1] > 40 µM

COc1ccc(/C=N/NC(=O)c2cc(O)c(O)c(O)c2)cc1Cn1cc([N+](=O)[O-])cn1
active: AC50 [3] 5.22 µM | AC50 (Caspase-6) 0.873 µM | IC50 (Large T antigen) 0.99 µM | EC50 [5] 30 µM | IC50 [6] 4.31 µM | IC50 (Aminopeptidase N) 92.6 µM | IC50 [7] 12 µM | EC50 [8] 3.25 µM
inactive: IC50 (Albumin) > 94.1 µM | IC50 [4] > 43.8 µM

C[C@@H](O)C#Cc1ccc2c(c1)O[C@H](CN(C)Cc1ccc(-c3ccccc3)cc1)[C@@H](C)CN([C@@H](C)CO)S2(=O)=O
inactive: AC50 [13] > 70 µM
active: AC50 [9] 28.6 µM | AC50 [10] 19.4 µM | AC50 (Paired box protein Pax-8) 4.84 µM | AC50 [11] 51.8 µM | AC50 [12] 50.2 µM
